US20250206732A1, “COMPOUNDS AND METHODS FOR THE TARGETED DEGRADATION OF KRAS” (Arvinas Operations, Inc., priority 2022, published 2025)

Target: T1, AsPC-1 HiBiT-KRASG12D (Homo sapiens, UniProt P01116, G12D)
T1 construct: insert the HiBiT tag onto the N-terminus of one or more of the endogenous KRAS alleles; endogenous in cells; host or cells: AsPC-1 (ATCC CRL-1682), CRISPR-Cas9 knock-in clone, one tagged allele
Assay: HiBiT degradation assay (G12D), AsPC-1 HiBiT-KRASG12D cells
Type: cell-based
Details: 24 hours treatment; for Dmax: ASPC1, AsPC-1 HiBiT-KRASG12D cells, maximum degradation observed; for DC50: AsPC-1 HiBiT-KRASG12D cells, HiBiT luminescence
Procedure, shortened: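 Endogenous KRASG12D levels were measured via an N-terminal HiBiT tag knocked into AsPC-1 cells. Cells received compound titrations for 24 hours, and HiBiT luminescence was detected after a 45-minute lytic reagent incubation at room temperature.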

T1 sequence (P01116 1-188 isoform P01116-2 G12D): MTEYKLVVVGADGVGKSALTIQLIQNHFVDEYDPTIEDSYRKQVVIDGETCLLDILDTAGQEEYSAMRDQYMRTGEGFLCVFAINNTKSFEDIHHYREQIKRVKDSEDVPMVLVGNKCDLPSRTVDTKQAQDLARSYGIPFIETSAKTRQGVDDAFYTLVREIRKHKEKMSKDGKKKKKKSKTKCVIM

Compound	Dmax [%]	DC50 [nM]
CCc1cccc2cc(O)cc(-c3ncc4c(N5CC6CCC(C5)N6)nc(OC[C@@H]5CC[C@@H](COC(=O)N6CCN(c7cc([C@H](C(=O)N8C[C@H](O)C[C@H]8C(=O)N[C@@H](C)c8ccc(-c9scnc9C)cc8)C(C)C)on7)CC6)N5C)nc4c3F)c12 [Compound 50, [(2S,5S)-5-{[(4-{3,8-diazabicyclo[3.2.1]octan-3-yl}-7-(8-ethyl-3-hydroxynaphthalen-1-yl)-8-fluoropyrido[4,3-d]pyrimidin-2-yl)oxy]methyl}-1-methylpyrrolidin-2-yl]methyl 4-{5-[(2R)-1-[(2S,4R)-4-hydroxy-2-{[(1S)-1-[4-(4-methyl-1,3-thiazol-5-yl)phenyl]ethyl]carbamoyl}pyrrolidin-1-yl]-3-methyl-1-oxobutan-2-yl]-1,2-oxazol-3-yl}piperazine-1-carboxylate]	80 to 100	< 600
C#Cc1c(F)ccc2cc(O)cc(-c3ncc4c(N5CC6CCC(C5)N6)nc(OCCN5CCC(CC6CCN(c7cc([C@H](C(=O)N8C[C@H](O)C[C@H]8C(=O)N[C@@H](C)c8ccc(-c9scnc9C)cc8)C(C)C)on7)CC6)CC5)nc4c3F)c12 (relative stereo) [Compound 307, (2S,4R)-1-((R)-2-(3-(4-((1-(2-((4-((1R,5S)-3,8-diazabicyclo[3.2.1]octan-3-yl)-7-(8-ethynyl-7-fluoro-3-hydroxynaphthalen-1-yl)-8-fluoropyrido[4,3-d]pyrimidin-2-yl)oxy)ethyl)piperidin-4-yl)methyl)piperidin-1-yl)isoxazol-5-yl)-3-methylbutanoyl)-4-hydroxy-N—((S)-1-(4-(4-methylthiazol-5-yl)phenyl)ethyl)pyrrolidine-2-carboxamide]	80 to 100	< 600
C#Cc1c(F)ccc2cc(O)cc(-c3ncc4c(N5CC6CCC(C5)N6)nc(OCCN5CCC(CCOc6cc([C@H](C(=O)N7C[C@H](O)C[C@H]7C(=O)N[C@@H](C)c7ccc(-c8scnc8C)cc7)C(C)C)on6)CC5)nc4c3F)c12 [Compound 173, (2S,4R)-1-[(2R)-2-{3-[2-(1-{2-[(4-{3,8-diazabicyclo[3.2.1]octan-3-yl}-7-(8-ethynyl-7-fluoro-3-hydroxynaphthalen-1-yl)-8-fluoropyrido[4,3-d]pyrimidin-2-yl)oxy]ethyl}piperidin-4-yl)ethoxy]-1,2-oxazol-5-yl}-3-methylbutanoyl]-4-hydroxy-N-[(1S)-1-[4-(4-methyl-1,3-thiazol-5-yl)phenyl]ethyl]pyrrolidine-2-carboxamide]	80 to 100	< 600
Cc1ncsc1-c1ccc([C@H](C)NC(=O)[C@@H]2C[C@@H](O)CN2C(=O)[C@@H](c2cc(N3CCN(C(=O)OC[C@H]4CC[C@@]5(COc6nc(N7CC8CCC(C7)N8)c7cc(Cl)c(-c8cc(O)cc9ccccc89)c(F)c7n6)CCCN45)CC3)no2)C(C)C)cc1 (single isomer, unassigned) [Compound 329]	80 to 100	< 600
C#Cc1c(F)ccc2cc(O)cc(-c3ncc4c(N5CC6CCC(C5)N6)nc(OCCN5CCC(C6CCN(c7cc([C@H](C(=O)N8C[C@H](O)C[C@H]8C(=O)N[C@@H](C)c8ccc(-c9scnc9C)cc8)C(C)C)on7)CC6)CC5)nc4c3F)c12 [Compound 176, (2S,4R)-1-[(2R)-2-[3-(1′-{2-[(4-{3,8-diazabicyclo[3.2.1]octan-3-yl}-7-(8-ethynyl-7-fluoro-3-hydroxynaphthalen-1-yl)-8-fluoropyrido[4,3-d]pyrimidin-2-yl)oxy]ethyl}-[4,4′-bipiperidin]-1-yl)-1,2-oxazol-5-yl]-3-methylbutanoyl]-4-hydroxy-N-]	80 to 100	< 600
C#Cc1c(F)ccc2cc(O)cc(-c3ncc4c(N5CC6CCC(C5)N6)nc(OCCN5CCC(C(C)(C)N6CCN(c7cc([C@H](C(=O)N8C[C@H](O)C[C@H]8C(=O)N[C@@H](C)c8ccc(-c9scnc9C)cc8)C(C)C)on7)CC6)CC5)nc4c3F)c12 [Compound 175, (2S,4R)-1-[(2R)-2-(3-{4-[2-(1-{2-[(4-{3,8-diazabicyclo[3.2.1]octan-3-yl}-7-(8-ethynyl-7-fluoro-3-hydroxynaphthalen-1-yl)-8-fluoropyrido[4,3-d]pyrimidin-2-yl)oxy]ethyl}piperidin-4-yl)propan-2-yl]piperazin-1-yl}-1,2-oxazol-5-yl)-3-methylbutanoyl]-4-hydroxy-N-[(1S)-1-[4-(4-methyl-1,3-thiazol-5-yl)phenyl]ethyl] pyrrolidine-2-carboxamide]	80 to 100	< 600
CCc1cccc2cc(O)cc(-c3ncc4c(N5CC6CCC(C5)N6)nc(OC[C@]56CCCN5[C@H](COC(=O)N5CCN(c7cc([C@@H](C(=O)N8C[C@H](O)C[C@H]8C(=O)N[C@@H](C)c8ccc(-c9scnc9C)cc8)C(C)C)on7)[C@H](C)C5)CC6)nc4c3F)c12 [Compound 131, [(3S,7aR)-7a-{[(4-{3,8-diazabicyclo[3.2.1]octan-3-yl}-7-(8-ethyl-3-hydroxynaphthalen-1-yl)-8-fluoropyrido[4,3-d]pyrimidin-2-yl)oxy]methyl}-hexahydro-1H-pyrrolizin-3-yl]methyl (3R)-4-{5-[(2S)-1-[(2S,4R)-4-hydroxy-2-{[(1S)-1-[4-(4-methyl-1,3-thiazol-5-yl)phenyl]ethyl]carbamoyl}pyrrolidin-1-yl]-3-methyl-1-oxobutan-2-yl]-1,2-oxazol-3-yl}-3-methylpiperazine-1-carboxylate]	< 20	< 600
C#Cc1c(F)ccc2cc(O)cc(-c3ncc4c(N5CC6CCC(C5)N6)nc(OCCN5CCC(C)(COc6cc([C@H](C(=O)N7C[C@H](O)C[C@H]7C(=O)N[C@@H](C)c7ccc(-c8scnc8C)cc7)C(C)C)on6)CC5)nc4c3F)c12 [Compound 313, (2S,4R)-1-[(2R)-2-{3-[(1-{2-[(4-{3,8-diazabicyclo[3.2.1]octan-3-yl}-7-(8-ethynyl-7-fluoro-3-hydroxynaphthalen-1-yl)-8-fluoropyrido[4,3-d]pyrimidin-2-yl)oxy]ethyl}-4-methylpiperidin-4-yl)methoxy]-1,2-oxazol-5-yl}-3-methylbutanoyl]-4-hydroxy-N-[(1S)-1-[4-(4-methyl-1,3-thiazol-5-yl)phenyl]ethyl]pyrrolidine-2-carboxamide]	80 to 100	< 600
CCc1cccc2cc(O)cc(-c3ncc4c(N5CC6CCC(C5)N6)nc(OCCN5CCC(F)(CN6CCN(c7cc([C@H](C(=O)N8C[C@H](O)C[C@H]8C(=O)N[C@@H](C)c8ccc(-c9ccnn9C)cc8)C(C)C)on7)CC6)CC5)nc4c3F)c12 [Compound 199, (2S,4R)-1-[(2R)-2-(3-{4-[(1-{2-[(4-{3,8-diazabicyclo[3.2.1]octan-3-yl}-7-(8-ethyl-3-hydroxynaphthalen-1-yl)-8-fluoropyrido[4,3-d]pyrimidin-2-yl)oxy]ethyl}-4-fluoropiperidin-4-yl)methyl]piperazin-1-yl}-1,2-oxazol-5-yl)-3-methylbutanoyl]-4-hydroxy-N-[(1S)-1-[4-(1-methyl-1H-pyrazol-5-yl)phenyl]ethyl] pyrrolidine-2-carboxamide]	80 to 100	< 600
CCc1cccc2cc(O)cc(-c3ncc4c(N5CC6CCC(C5)N6)nc(OC[C@@]56CCCN5[C@H](CN5CCC(F)(COc7cc([C@H](C(=O)N8C[C@H](O)C[C@H]8C(=O)N[C@@H](C)c8ccc(-c9scnc9C)cc8)C(C)C)on7)CC5)CC6)nc4c3F)c12 [Compound 335, (2S,4R)-1-[(2R)-2-[3-[[1-[[(3S,8S)-8-[[4-(3,8-diazabicyclo[3.2.1]octan-3-yl)-7-(8-ethyl-3-hydroxy-1-naphthyl)-8-fluoro-pyrido[4,3-d]pyrimidin-2-yl]oxymethyl]-1,2,3,5,6,7-hexahydropyrrolizin-3-yl]methyl]-4-fluoro-4-piperidyl]methoxy]isoxazol-5-yl]-3-methyl-butanoyl]-4-hydroxy-N-[(1S)-1-[4-(4-methylthiazol-5-yl)phenyl]ethyl]pyrrolidine-2-carboxamide]	80 to 100	< 600
Cc1ncsc1-c1ccc([C@H](C)NC(=O)[C@@H]2C[C@@H](O)CN2C(=O)[C@@H](c2cc(N3CCN(C(=O)OC[C@@H]4CC[C@]5(COc6nc(N7CC8CCC(C7)N8)c7cc(Cl)c(-c8cc(O)cc9ccccc89)c(F)c7n6)CCCN45)CC3)no2)C(C)C)cc1 (relative stereo) [Compound 328, [(3S,8S)-8-[[6-chloro-4-(3,8-diazabicyclo[3.2.1]octan-3-yl)-8-fluoro-7-(3-hydroxy-1-naphthyl)quinazolin-2-yl]oxymethyl]-1,2,3,5,6,7-hexahydropyrrolizin-3-yl]methyl 4-[5-[(1R)-1-[(2S,4R)-4-hydroxy-2-[[(1S)-1-[4-(4-methylthiazol-5-yl)phenyl]ethyl]carbamoyl]pyrrolidine-1-carbonyl]-2-methyl-propyl]isoxazol-3-yl]piperazine-1-carboxylate]	80 to 100	< 600
CCc1cccc2cc(O)cc(-c3ncc4c(N5CC6CCC(C5)N6)nc(OC[C@@H]5CC[C@@H](COC(=O)N6CC(Oc7cc([C@@H](C(=O)N8C[C@H](O)C[C@H]8C(=O)N[C@@H](C)c8ccc(-c9scnc9C)cc8)C(C)C)on7)C6)N5C)nc4c3F)c12 [Compound 291]	< 20	< 600
CCc1cccc2cc(O)cc(-c3ncc4c(N5CC6CCC(C5)N6)nc(OCCN5CCC(CCOc6cc([C@@H](C(=O)N7C[C@H](O)C[C@H]7C(=O)N[C@@H](C)c7ccc(-c8scnc8C)cc7)C(C)C)on6)CC5)nc4c3F)c12 [Compound 248]	–	> 3000
CCc1cccc2cccc(-c3ncc4c(N5CCCCCC5)nc(OC[C@]56CCCN5[C@H](COC(=O)N5CCN(c7cc([C@H](C(=O)N8C[C@H](O)C[C@H]8C(=O)N[C@@H](C)c8ccc(-c9scnc9C)cc8)C(C)C)on7)CC5)CC6)nc4c3F)c12 (relative stereo) [Compound 331]	–	> 3000
